Measured values taken from publication PMC8162404, “Proteomimetic surface fragments distinguish targets by function” (Chemical Science, 2020).
Like-named read-outs stand apart in the source and are kept apart here.

Legend:
[1] = target: Gal-1; parameters: method as in PMID 15476813; settings: native ligand used as competitor; cited from earlier work
[2] = target: T1, RecQ-WH (Escherichia coli, UniProt P15043); assay: Pull-down assay with immobilized protein and LSM libraries; parameters: species or system E. coli; settings: H14 library; 1:1 binding assumed; read-out: Surface mapping KD (apparent)
T1 construct: coding for residues 408– 523 of E. coli RecQ; made in house; host or cells: E. coli BL21(DE3)
T1 sequence (P15043 408-523): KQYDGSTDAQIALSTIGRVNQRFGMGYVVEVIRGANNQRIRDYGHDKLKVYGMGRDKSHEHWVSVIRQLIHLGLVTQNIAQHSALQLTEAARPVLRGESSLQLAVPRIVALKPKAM
How it was run: (§1)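 Buffers were HEPES pH 7.4 with 150 mM NaCl, plus 1 mM TCEP and 1 mM CaCl2 (50 mM HEPES) for S100A4 and S100B, 1 mM TCEP for Gal-1, and no additive for RecQ-WH. Immobilized protein at 64 µM was equilibrated 30 min with the LSM sublibrary, and unbound probes were measured by LC-MS.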

[3] = target: T1, RecQ-WH; assay: Competition pull-down with native ligand SSB-Ct8; assay type: binding, E. coli; settings: H14 library; competitor peptide 200 µM; read-out: Surface mapping KD (apparent), competition
[4] = target: T2, Gal-1 (Homo sapiens, UniProt P09382); assay: Competition pull-down with lactose; assay type: binding; settings: H14 library; lactose 10 mM; read-out: Surface mapping KD (apparent), competition
T2 construct: made in house; host or cells: E. coli BL21(DE3)
T2 sequence (P09382 whole entry): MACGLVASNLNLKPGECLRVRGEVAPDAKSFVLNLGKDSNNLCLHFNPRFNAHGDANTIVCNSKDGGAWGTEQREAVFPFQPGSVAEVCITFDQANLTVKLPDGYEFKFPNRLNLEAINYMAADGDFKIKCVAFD
How it was run: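 His6-tagged proteins immobilized on Co-NTA resin at 64 µM final with 64-member LSM foldamer sublibraries (1 M each, as printed) in pH 7.4 HEPES/NaCl buffers (Ca2+/TCEP per target), 30 min RT; competitor peptides 200 µM final, lactose 10 mM for Gal-1. Bound fractions from LC-MS loss vs protein-free resin; KD assuming 1:1 binding.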

[5] = target: T3, CaM (Bos taurus, UniProt P62157); assay: Competition pull-down with native ligand TRPV1-Ct15; assay type: binding, bovine; settings: H14 library; competitor peptide 200 µM; read-out: Surface mapping KD (apparent), competition
T3 construct: made in house; host or cells: E. coli BL21 (DE3)

[6] = target: T3, CaM; assay: Pull-down assay with immobilized protein and LSM libraries; assay type: binding, bovine; settings: H14 library; 1:2 stoichiometry assumed; read-out: Surface mapping KD (apparent)
How it was run: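 CaM buffer was 20 mM HEPES pH 7.4, 150 mM NaCl, 5 mM CaCl2. LSM sublibrary members ([…]) incubated 30 min, RT, with equimolar His-tagged protein on Co-NTA resin. HPLC-MS measured unbound probes; bound fraction relative to resin-only background gave dissociation constants.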

[7] = target: T4, S100A4 (Homo sapiens, UniProt P26447); assay: Competition pull-down with native ligand NMIIA (1893–1923); assay type: binding; settings: H14 library; competitor peptide 200 µM; read-out: Surface mapping KD (apparent), competition
T4 construct: made in house; host or cells: Escherichia coli BL21(DE3)
T4 sequence (P26447 whole entry): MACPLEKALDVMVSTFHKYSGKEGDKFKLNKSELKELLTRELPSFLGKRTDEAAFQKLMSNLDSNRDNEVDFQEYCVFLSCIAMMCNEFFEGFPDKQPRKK

[8] = target: T2, Gal-1; assay: Pull-down assay with immobilized protein and LSM libraries; assay type: binding; settings: H14 library; 1:1 binding assumed; read-out: Surface mapping KD (apparent)
How it was run: as §1

[9] = target: T4, S100A4; assay: as above; assay type: binding; settings: for Kd: H14 library, 1:1 binding assumed, read-out: Surface mapping KD (apparent); for Affinity class of probe (high, medium, low) in pull-down: H14 probes selected for validation
How it was run: as §1

[10] = target: T5, S100B (Homo sapiens, UniProt P04271); assay: as above; assay type: binding; settings: for Kd: H14 library, 1:1 binding assumed, read-out: Surface mapping KD (apparent); for Affinity class of probe (high, medium, low) in pull-down: H14 probes selected for validation
T5 construct: made in house; host or cells: Escherichia coli BL21(DE3)
T5 sequence (P04271 1-92): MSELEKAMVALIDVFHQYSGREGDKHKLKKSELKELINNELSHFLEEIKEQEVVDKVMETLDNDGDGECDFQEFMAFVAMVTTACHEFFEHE
How it was run: as §1

[11] = target: T5, S100B; assay: Competition pull-down with native ligand RSK1 (689–735); assay type: binding; settings: H14 library; competitor peptide 200 µM; read-out: Surface mapping KD (apparent), competition
[12] = target: T4, S100A4; parameters: method as in PMID 26527685; settings: native ligand used as competitor; cited from earlier work
[13] = target: T5, S100B; parameters: method as in PMID 26527685; settings: native ligand used as competitor; cited from earlier work

Compound	Kd [1]	Kd [2]	Kd [3]	Kd [4]	Kd [5]	Kd [6]	Kd [7]	Kd [8]	Kd [9]	Kd [10]	Kd [11]	Affinity class of probe (high, medium, low) in pull-down [9]	Affinity class of probe (high, medium, low) in pull-down [10]	Kd [12]	Kd [13]
OC[C@H]1O[C@@H](O[C@H]2[C@H](O)[C@@H](O)C(O)O[C@@H]2CO)[C@H](O)[C@@H](O)[C@H]1O (mixture of isomers) [Lactose]	409 µM	–	–	–	–	–	–	–	–	–	–	–	–	–	–
CC(C)C[C@@H](CC(=O)N[C@H]1CCCC[C@@H]1C(=O)N[C@H]1CCCC[C@@H]1C(=O)N[C@H](CC(=O)N[C@H]1CCCC[C@@H]1C(N)=O)Cc1ccccc1)NC(=O)[C@H]1CCCC[C@@H]1N [H14 LF]	–	186 µM	439 µM	43 µM	162 µM	11 µM	140 µM	25 µM	3 µM	11 µM	71 µM	–	–	–	–
CC[C@H](C)[C@@H](CC(=O)N[C@H]1CCCC[C@@H]1C(N)=O)NC(=O)[C@H]1CCCC[C@@H]1NC(=O)[C@H]1CCCC[C@@H]1NC(=O)C[C@H](CC(C)C)NC(=O)[C@H]1CCCC[C@@H]1N [H14 LI]	–	160 µM	355 µM	50 µM	280 µM	16 µM	101 µM	24 µM	2 µM	19 µM	147 µM	–	–	–	–
CC(C)C[C@@H](CC(=O)N[C@H]1CCCC[C@@H]1C(N)=O)NC(=O)[C@H]1CCCC[C@@H]1NC(=O)[C@H]1CCCC[C@@H]1NC(=O)C[C@H](CC(C)C)NC(=O)[C@H]1CCCC[C@@H]1N [H14 LL]	–	206 µM	253 µM	32 µM	276 µM	16 µM	117 µM	17 µM	1 µM	28 µM	147 µM	–	–	–	–
CC(C)C[C@@H](CC(=O)N[C@H]1CCCC[C@@H]1C(=O)N[C@H]1CCCC[C@@H]1C(=O)N[C@H](CC(=O)N[C@H]1CCCC[C@@H]1C(N)=O)Cc1c[nH]c2ccccc12)NC(=O)[C@H]1CCCC[C@@H]1N [H14 LW]	–	195 µM	315 µM	65 µM	88 µM	0.4 µM	244 µM	38 µM	8 µM	21 µM	67 µM	–	–	–	–
CC[C@H](C)[C@@H](CC(=O)N[C@H]1CCCC[C@@H]1C(N)=O)NC(=O)[C@H]1CCCC[C@@H]1NC(=O)[C@H]1CCCC[C@@H]1NC(=O)C[C@H](Cc1c[nH]c2ccccc12)NC(=O)[C@H]1CCCC[C@@H]1N [H14 WI]	–	68 µM	142 µM	105 µM	55 µM	1 µM	255 µM	71 µM	10 µM	12 µM	123 µM	–	–	–	–
CC(C)C[C@@H](CC(=O)N[C@H]1CCCC[C@@H]1C(N)=O)NC(=O)[C@H]1CCCC[C@@H]1NC(=O)[C@H]1CCCC[C@@H]1NC(=O)C[C@H](Cc1c[nH]c2ccccc12)NC(=O)[C@H]1CCCC[C@@H]1N [H14 WL]	–	68 µM	142 µM	105 µM	55 µM	1 µM	255 µM	71 µM	10 µM	12 µM	123 µM	high	high	–	–
NC(=O)[C@H]1CCCC[C@@H]1NC(=O)C[C@H](Cc1c[nH]c2ccccc12)NC(=O)[C@H]1CCCC[C@@H]1NC(=O)[C@H]1CCCC[C@@H]1NC(=O)C[C@H](Cc1c[nH]c2ccccc12)NC(=O)[C@H]1CCCC[C@@H]1N [H14 WW]	–	40 µM	84 µM	51 µM	35 µM	1.2 µM	462 µM	30 µM	23 µM	19 µM	138 µM	medium	high	–	–
NC(=O)[C@H]1CCCC[C@@H]1NC(=O)C[C@H](Cc1ccc(O)cc1)NC(=O)[C@H]1CCCC[C@@H]1NC(=O)[C@H]1CCCC[C@@H]1NC(=O)C[C@H](Cc1c[nH]c2ccccc12)NC(=O)[C@H]1CCCC[C@@H]1N [H14 WY]	–	50 µM	193 µM	222 µM	119 µM	2 µM	367 µM	145 µM	35 µM	66 µM	104 µM	–	–	–	–
NC(=O)[C@H]1CCCC[C@@H]1NC(=O)C[C@H](Cc1c[nH]c2ccccc12)NC(=O)[C@H]1CCCC[C@@H]1NC(=O)[C@H]1CCCC[C@@H]1NC(=O)C[C@H](Cc1ccc(O)cc1)NC(=O)[C@H]1CCCC[C@@H]1N [H14 YW]	–	46 µM	164 µM	112 µM	404 µM	2 µM	391 µM	115 µM	25 µM	42 µM	38 µM	–	–	–	–
NMIIA (1893–1923): peptide motif of non-muscle myosin IIA, native ligand competitor for S100A4	–	–	–	–	–	–	–	–	–	–	–	–	–	0.007 ± 0.001 µM	–
RSK1 (689–735): peptide motif of ribosomal S6 kinase 1, native ligand competitor for S100B (QDLQLVKGAMAATYSALNSSKPTPQLKPIESSILAQRRVRKLPSTTL; UniProt Q15418 689-735, looked up, fragment)	–	–	–	–	–	–	–	–	–	–	–	–	–	–	1.8 µM
